From ChEMBL document CHEMBL3885861, “Open TG-GATES”

Species on record: Rattus norvegicus
Assay: Open TG-GATES - Regimen: Single
Assay type: toxicity, organism-based, Sprague-Dawley
Parameters: regimen Single, gender Male, age 6 weeks
Conditions: in vivo, po, 100 mg/kg, route gavage, dose level Low; for ALP / ALT / AST / BUN / CRE / Ca / Cl / DBIL / GLC / IP / K / LDH / Na / PL / RALB / TBIL / TC / TG / TP / gamma-GTP: tissue Plasma

O=C(O)c1cccnc1 [NIACIN]
Bas (3 h, tissue Blood): 0% | Eos (3 h, tissue Blood): 1% | Fbg (3 h, tissue Blood): 311 mg/dL | Hb (3 h, tissue Blood): 13.6 g/dL | Ht (3 h, tissue Blood): 40.7% | Lym (3 h, tissue Blood): 78.4% | MCHC (3 h, tissue Blood): 33.4% | MCV (3 h, tissue Blood): 65.5 fL | Mono (3 h, tissue Blood): 2.6% | Neu (3 h, tissue Blood): 16.6% | PT (3 h, tissue Blood): 16.2 s | Plat (3 h, tissue Blood): 118.2 x10_4/uL | RBC (3 h, tissue Blood): 621.4 x10_4/ul | Ret (3 h, tissue Blood): 8.2% | WBC (3 h, tissue Blood): 107.6 x10_2/uL | ALP (3 h): 1552.4 IU/L | ALT (3 h): 42.2 IU/L | AST (3 h): 79.8 IU/L | BUN (3 h): 13.6 mg/dL | CRE (3 h): 0.2 mg/dL | Ca (3 h): 10.8 mg/dL | Cl (3 h): 105.4 meq/L | DBIL (3 h): 0 mg/dL | GLC (3 h): 183 mg/dL | IP (3 h): 8.7 mg/dL | K (3 h): 3.9 meq/L | LDH (3 h): 196.8 IU/L | Na (3 h): 141 meq/L | PL (3 h): 118.4 mg/dL | RALB (3 h): 3 g/dL | TBIL (3 h): 0.008 mg/dL | TC (3 h): 71 mg/dL | TG (3 h): 27.8 mg/dL | TP (3 h): 5.6 g/dL | gamma-GTP (3 h): 1.4 IU/L | APTT (6 h, tissue Blood): 22.5 s | Bas (6 h, tissue Blood): 0% | Eos (6 h, tissue Blood): 1% | Fbg (6 h, tissue Blood): 314 mg/dL | Hb (6 h, tissue Blood): 13.4 g/dL | Ht (6 h, tissue Blood): 40% | Lym (6 h, tissue Blood): 78.4% | MCHC (6 h, tissue Blood): 33.4% | Mono (6 h, tissue Blood): 3.4% | Neu (6 h, tissue Blood): 16.2% | PT (6 h, tissue Blood): 16.5 s | Plat (6 h, tissue Blood): 119.1 x10_4/uL | RBC (6 h, tissue Blood): 626.8 x10_4/ul | Ret (6 h, tissue Blood): 8% | WBC (6 h, tissue Blood): 87.9 x10_2/uL | ALP (6 h): 1431.4 IU/L | ALT (6 h): 38.8 IU/L | AST (6 h): 69.8 IU/L | BUN (6 h): 12.4 mg/dL | CRE (6 h): 0.2 mg/dL | Ca (6 h): 10.9 mg/dL | Cl (6 h): 105 meq/L | DBIL (6 h): 0.002 mg/dL | GLC (6 h): 186 mg/dL | IP (6 h): 8.9 mg/dL | K (6 h): 3.8 meq/L | LDH (6 h): 156.8 IU/L | Na (6 h): 139.8 meq/L | PL (6 h): 115 mg/dL | RALB (6 h): 3 g/dL | TBIL (6 h): 0.008 mg/dL | TC (6 h): 64.4 mg/dL | TG (6 h): 37.2 mg/dL | TP (6 h): 5.5 g/dL | gamma-GTP (6 h): 1.6 IU/L | Bas (9 h, tissue Blood): 0% | Eos (9 h, tissue Blood): 0.8% | Fbg (9 h, tissue Blood): 305.4 mg/dL | Hb (9 h, tissue Blood): 13.5 g/dL | Ht (9 h, tissue Blood): 40.6% | Lym (9 h, tissue Blood): 81.6% | MCHC (9 h, tissue Blood): 33.3% | MCV (9 h, tissue Blood): 65.6 fL | Mono (9 h, tissue Blood): 2% | Neu (9 h, tissue Blood): 15.2% | PT (9 h, tissue Blood): 15.6 s | Plat (9 h, tissue Blood): 126.3 x10_4/uL | RBC (9 h, tissue Blood): 618.6 x10_4/ul | Ret (9 h, tissue Blood): 8.4% | WBC (9 h, tissue Blood): 88.6 x10_2/uL | ALP (9 h): 1314.4 IU/L | ALT (9 h): 38.8 IU/L | AST (9 h): 70.4 IU/L | CRE (9 h): 0.2 mg/dL | Ca (9 h): 10.8 mg/dL | Cl (9 h): 105.4 meq/L | DBIL (9 h): 0.002 mg/dL | GLC (9 h): 182.8 mg/dL | IP (9 h): 8.9 mg/dL | K (9 h): 4.1 meq/L | LDH (9 h): 161.4 IU/L | Na (9 h): 140.6 meq/L | PL (9 h): 134 mg/dL | RALB (9 h): 2.9 g/dL | TBIL (9 h): 0.008 mg/dL | TC (9 h): 73 mg/dL | TG (9 h): 77 mg/dL | TP (9 h): 5.5 g/dL | gamma-GTP (9 h): 1.6 IU/L | Bas (24 h, tissue Blood): 0% | Eos (24 h, tissue Blood): 1% | Fbg (24 h, tissue Blood): 327.8 mg/dL | Hb (24 h, tissue Blood): 13.7 g/dL | Ht (24 h, tissue Blood): 40.6% | Lym (24 h, tissue Blood): 77.8% | MCHC (24 h, tissue Blood): 33.6% | MCV (24 h, tissue Blood): 64.8 fL | Mono (24 h, tissue Blood): 3% | Neu (24 h, tissue Blood): 17.2% | PT (24 h, tissue Blood): 16 s | Plat (24 h, tissue Blood): 109.3 x10_4/uL | RBC (24 h, tissue Blood): 627.6 x10_4/ul | Ret (24 h, tissue Blood): 7.6% | WBC (24 h, tissue Blood): 96.3 x10_2/uL | ALP (24 h): 1716.6 IU/L | ALT (24 h): 41.6 IU/L | AST (24 h): 67.2 IU/L | BUN (24 h): 16.2 mg/dL | CRE (24 h): 0.2 mg/dL | Ca (24 h): 10.5 mg/dL | Cl (24 h): 104.6 meq/L | DBIL (24 h): 0.002 mg/dL | GLC (24 h): 192 mg/dL | IP (24 h): 7.6 mg/dL | K (24 h): 4.1 meq/L | LDH (24 h): 155.4 IU/L | Na (24 h): 139.6 meq/L | PL (24 h): 154.2 mg/dL | RALB (24 h): 3.1 g/dL | TBIL (24 h): 0 mg/dL | TC (24 h): 75.2 mg/dL | TG (24 h): 158.4 mg/dL | TP (24 h): 5.6 g/dL
